# Results taken from patent publication EP0280051A1, “ACV synthetase” (QUEEN'S UNIVERSITY AT KINGSTON, priority 1987, dated 1988).
# Target: ACV-synthetase of C. acremonium C-10 (Hapsidospora chrysogena, UniProt P25464)
# Experiment: Cell-free ACV synthetase reaction (desalted extract, HPLC analysis after monobromobimane derivatization)
# Format: biochemical
# Conditions: for inhibition of ACV-synthetase: qualitative, concentration not clearly stated for the inhibitors
# Experimental: a Typical reaction mixtures contained desalted extract (about 0.5 mg protein), 20 µg cycloheximide, 10 mM ATP, 10 mM MgC12, 5 mM dithiothreitol, 5 mM L-α-aminoadipic acid, I mM L -cysteine and 5 mM L -valine, all components dissolved in 100 µl of 100 mM MOPS/KOH at pH 7.5. Reactions were performed at 25°C in a water bath shaker, and terminated by addition of 25 µl of 20% trichloroacetic acid. Precipitated protein was removed by centrifugation, and the supernatant stored at -20°C prior to analysis. (MOPS = 3-[N-Morpholino] propanesulfonic acid, - a biological buffer available from Sigma Chemical Co.
# Mycelia from Example 1 were washed twice with cold 50 mM Tris/HC1 buffer (pH 7.2) containing 100 mM KC1. After centrifugation, the pellet was resuspended in a volume of cold 100 mM MOPS/KOH buffer (pH 7.2) equal to twice the pellet volume; the buffer also contained 50 mM KCI, 30 mM 2-mercaptoethanol, 20 mM EDTA and 50% glycerol (v/v). The cells were disrupted in a French Press (Aminco) at 8000 psi and the debris removed by centrifugation (30,000×g, 15 min). The clear yellow supernatant fluid was stored at -20°C or immediately desalted by passage through a Sephadex G-15 column using an elution buffer of 100 mM MOPSiKOH (pH 7.2) containing 50 mM KCI and 20% glycerol (v/v). The resulting solution contained 10 to 20 mg protein per ml and was either used immediately for the cell-free reaction or frozen for future use.
# Stored frozen extract (from Example 2) was thawed, desalted over Sephadex eG-15, and eluted with 100 mM MOPS/KOH at pH 7.5. Typical reaction mixtures contained desalted extract (about 0.5 mg protein), 20 µg cycloheximide, 10 mM ATP, 10 mM MgCI2, 5 mM dithiothreitol, 5 mM L-α-aminoadipic acid, 1 mM L -cysteine and 5 mM L-valine, all components dissolved in 100 µl of 100 mM MOPS/KOH at pH 7.5. Reactions were performed at 25°C in a water bath shaker, and terminated by addition of 25 µl of 20% trichloroacetic acid. Precipitated protein was removed by centrifugation, and the supernatant stored at -20°C prior to analysis.
# Analyses were performed following derivatization with monobromobimane: to a 20 I sample were added successively 2 µl of 3M KOH, 4 µl of 0.03M dithiothreitol in 2M NH4HCO3 (pH 8.2), and 4 µl of 0.3M monobromobimane in acetonitrile. This mixture was stored for 15 min. in the dark, and then extracted with methylene chloride (4 × 200 I). Five µl of 1 M citric acid (pH 2.2) was added, and 25 µl of this final solution was injected into the HPLC apparatus.
# The HPLC analysis employed two solutions, viz., A, 880 mg for pentanesulfonic acid, 2.5 ml of acetic acid in I liter H20 (pH 3.6); B, 880 mg of pentanesulfonic acid, 2.5 ml acetic acid, 50 ml water and 950 ml acetonitrile. […]
# ACV-synthetase of C. acremonium C-10, sequence (P25464 whole entry): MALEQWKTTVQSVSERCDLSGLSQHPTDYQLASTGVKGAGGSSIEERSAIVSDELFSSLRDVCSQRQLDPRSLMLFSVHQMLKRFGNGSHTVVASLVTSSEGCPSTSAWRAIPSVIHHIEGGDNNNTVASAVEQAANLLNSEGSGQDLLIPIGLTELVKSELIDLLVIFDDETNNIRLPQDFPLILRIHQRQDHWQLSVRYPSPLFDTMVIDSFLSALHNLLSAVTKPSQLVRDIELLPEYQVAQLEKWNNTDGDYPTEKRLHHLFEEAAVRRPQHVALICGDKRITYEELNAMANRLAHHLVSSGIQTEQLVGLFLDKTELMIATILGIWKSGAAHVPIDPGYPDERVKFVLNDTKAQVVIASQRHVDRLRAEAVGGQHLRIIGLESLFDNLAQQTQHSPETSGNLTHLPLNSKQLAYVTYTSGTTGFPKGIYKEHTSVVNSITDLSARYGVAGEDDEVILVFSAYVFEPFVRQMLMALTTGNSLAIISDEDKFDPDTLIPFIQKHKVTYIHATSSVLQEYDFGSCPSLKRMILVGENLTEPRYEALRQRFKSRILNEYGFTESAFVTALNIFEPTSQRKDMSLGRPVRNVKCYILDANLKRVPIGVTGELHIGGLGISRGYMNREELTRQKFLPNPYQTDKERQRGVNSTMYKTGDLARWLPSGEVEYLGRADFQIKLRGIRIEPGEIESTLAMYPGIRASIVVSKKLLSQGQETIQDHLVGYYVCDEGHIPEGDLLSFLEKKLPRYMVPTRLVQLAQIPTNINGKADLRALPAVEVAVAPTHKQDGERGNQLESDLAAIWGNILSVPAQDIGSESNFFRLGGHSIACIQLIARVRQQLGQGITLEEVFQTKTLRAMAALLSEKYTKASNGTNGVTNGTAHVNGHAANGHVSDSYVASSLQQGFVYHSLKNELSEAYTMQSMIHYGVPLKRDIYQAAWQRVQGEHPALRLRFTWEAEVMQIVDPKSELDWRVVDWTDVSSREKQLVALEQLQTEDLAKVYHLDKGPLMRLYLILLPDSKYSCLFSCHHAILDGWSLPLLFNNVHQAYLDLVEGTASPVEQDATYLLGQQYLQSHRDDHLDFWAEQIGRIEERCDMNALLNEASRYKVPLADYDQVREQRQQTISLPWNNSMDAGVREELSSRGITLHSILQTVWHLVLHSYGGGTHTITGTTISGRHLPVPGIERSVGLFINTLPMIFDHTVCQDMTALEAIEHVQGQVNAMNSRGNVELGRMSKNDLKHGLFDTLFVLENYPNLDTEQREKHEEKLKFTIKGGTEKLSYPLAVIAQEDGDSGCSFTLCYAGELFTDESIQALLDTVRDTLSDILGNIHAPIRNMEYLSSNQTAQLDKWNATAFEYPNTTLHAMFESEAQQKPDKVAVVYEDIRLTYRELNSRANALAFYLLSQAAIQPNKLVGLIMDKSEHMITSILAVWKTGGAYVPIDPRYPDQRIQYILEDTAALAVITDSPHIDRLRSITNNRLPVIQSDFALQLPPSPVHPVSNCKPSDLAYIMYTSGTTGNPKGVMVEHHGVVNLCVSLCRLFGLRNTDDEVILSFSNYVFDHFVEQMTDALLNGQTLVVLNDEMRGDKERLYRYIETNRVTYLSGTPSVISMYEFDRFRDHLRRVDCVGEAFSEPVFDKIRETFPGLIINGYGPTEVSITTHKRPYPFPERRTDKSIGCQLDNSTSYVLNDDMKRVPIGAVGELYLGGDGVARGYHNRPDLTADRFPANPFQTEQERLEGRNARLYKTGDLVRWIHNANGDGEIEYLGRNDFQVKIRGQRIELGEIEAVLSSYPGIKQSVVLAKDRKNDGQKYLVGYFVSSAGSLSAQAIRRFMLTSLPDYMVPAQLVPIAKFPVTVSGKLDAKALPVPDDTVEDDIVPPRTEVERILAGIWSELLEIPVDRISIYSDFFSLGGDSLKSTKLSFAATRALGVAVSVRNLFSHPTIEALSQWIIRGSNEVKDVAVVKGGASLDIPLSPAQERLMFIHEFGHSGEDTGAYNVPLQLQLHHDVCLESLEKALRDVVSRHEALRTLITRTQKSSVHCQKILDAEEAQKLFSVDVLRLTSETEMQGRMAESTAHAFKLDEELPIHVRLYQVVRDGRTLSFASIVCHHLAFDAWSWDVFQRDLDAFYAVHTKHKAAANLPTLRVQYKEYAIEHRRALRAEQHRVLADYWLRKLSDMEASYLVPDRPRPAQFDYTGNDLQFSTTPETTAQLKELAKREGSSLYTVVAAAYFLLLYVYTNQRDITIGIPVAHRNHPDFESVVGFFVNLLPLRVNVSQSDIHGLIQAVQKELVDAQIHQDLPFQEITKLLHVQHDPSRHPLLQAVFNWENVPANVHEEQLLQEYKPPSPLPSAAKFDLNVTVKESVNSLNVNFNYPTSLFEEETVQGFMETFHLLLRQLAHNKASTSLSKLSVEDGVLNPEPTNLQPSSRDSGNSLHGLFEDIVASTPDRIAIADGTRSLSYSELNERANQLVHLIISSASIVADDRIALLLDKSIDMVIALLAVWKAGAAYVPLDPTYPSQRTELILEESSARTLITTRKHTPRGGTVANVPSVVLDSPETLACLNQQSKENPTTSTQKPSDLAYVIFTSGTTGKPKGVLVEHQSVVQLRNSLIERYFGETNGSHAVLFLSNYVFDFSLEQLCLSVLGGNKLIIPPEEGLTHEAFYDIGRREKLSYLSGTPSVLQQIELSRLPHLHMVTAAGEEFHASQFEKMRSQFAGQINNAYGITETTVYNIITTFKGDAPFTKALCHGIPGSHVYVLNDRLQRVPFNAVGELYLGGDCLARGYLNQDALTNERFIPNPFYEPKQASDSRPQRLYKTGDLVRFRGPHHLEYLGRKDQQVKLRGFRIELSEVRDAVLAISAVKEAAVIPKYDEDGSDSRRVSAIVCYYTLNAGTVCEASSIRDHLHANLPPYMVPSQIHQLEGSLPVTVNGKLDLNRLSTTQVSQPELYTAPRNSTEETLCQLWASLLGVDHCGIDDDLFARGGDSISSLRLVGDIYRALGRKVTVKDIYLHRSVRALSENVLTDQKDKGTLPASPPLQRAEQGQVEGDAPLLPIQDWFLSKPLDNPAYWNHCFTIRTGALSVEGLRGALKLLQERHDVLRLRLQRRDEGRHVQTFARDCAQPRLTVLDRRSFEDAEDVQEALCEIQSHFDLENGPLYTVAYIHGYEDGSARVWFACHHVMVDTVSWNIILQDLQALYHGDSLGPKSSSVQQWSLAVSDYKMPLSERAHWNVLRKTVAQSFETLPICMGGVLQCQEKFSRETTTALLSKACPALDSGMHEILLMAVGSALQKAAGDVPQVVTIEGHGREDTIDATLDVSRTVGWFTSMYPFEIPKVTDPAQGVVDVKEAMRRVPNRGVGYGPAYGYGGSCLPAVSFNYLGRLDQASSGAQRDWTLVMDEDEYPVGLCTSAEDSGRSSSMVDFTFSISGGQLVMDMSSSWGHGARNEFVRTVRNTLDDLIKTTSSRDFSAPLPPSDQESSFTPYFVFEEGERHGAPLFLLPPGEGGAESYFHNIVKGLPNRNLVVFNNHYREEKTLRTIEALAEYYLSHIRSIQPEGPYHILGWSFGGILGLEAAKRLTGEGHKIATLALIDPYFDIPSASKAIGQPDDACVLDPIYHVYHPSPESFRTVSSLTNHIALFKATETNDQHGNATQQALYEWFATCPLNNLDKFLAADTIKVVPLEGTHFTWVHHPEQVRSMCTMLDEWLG
compound,measurement,setting,value
glucose-1-phosphate,inhibition of ACV-synthetase,,inhibit
Fructose-1.6-diphosphate,inhibition of ACV-synthetase,,inhibit
orthophosphate,inhibition of ACV-synthetase,,inhibit
NCC(=O)O [glycine],effect on LLD-ACV synthesis,"added as a fourth amino acid, concentration not given",unaffected
